A word on the GI50: it is the concentration at which growth is held to half of that of the control. In general, TGI refers to the concentration at which net growth stops. Low readings indicate more potent growth arrest, high ones less potent growth arrest.

Common to all, as to experiment: DTP human tumour cell line panel, 48 h
Assay [1] relates to PC-3 prostate.
The subject of assay [2] is CAKI-1 renal.
The test system of assay [3] is TK-10 renal.
The test system of assay [4] is SR leukemia.
Assay [5] concerns M14 melanoma.
Assay [6] concerns IGROV1 ovarian.
Assay [7] has as its system MOLT-4 leukemia.
The subject of assay [8] is SW-620 colon.
Assay [9] deals with CCRF-CEM leukemia.
Assay [10] has as its system OVCAR-4 ovarian.

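Growth conditions: 96-well plates. Treatment: test compound, 48 hours, 5 concentrations. Analysis: linear interpolation between bracketing concentrations; unreached endpoints set to highest concentration. Abbreviation: GI50, concentration required for 50% inhibition of growth. At the TGI there is no net growth.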

On to `C=C1C(=O)O[C@H]2[C@H]1CC/C(CNC(=O)/C=C/c1cccc(OC)c1)=C\CC[C@@]1(C)O[C@@H]21`, for which the GI50 is 1.8 µM in [1]; 1.31 µM in assay [2]; 1.15 µM in assay [3]; 0.537 µM in assay [4]; 1.42 µM in [5]; 1.96 µM in assay [6]. Moreover, the GI50 is 2.12 µM in assay [7], 0.958 µM in [8], 0.419 µM in assay [9] and 1.69 µM in [10]. For the same compound, the TGI in [1] is 3.86 µM; in assay [2] it was 2.68 µM; in assay [3] it was 2.5 µM; in assay [4], 10.5 µM; in assay [5], 3.11 µM; in [6], 5.3 µM. Also, the TGI in assay [7] was determined as 7.36 µM; in assay [8] it was 2.33 µM; in assay [9], 5.29 µM; in assay [10], 4.79 µM.

For the compound `O=CN1N=C(c2ccc(Nc3ccnc4cc(Cl)ccc34)cc2)CC1c1ccccc1` (stereo not given), the GI50 is 4.76 µM in assay [1]; 3.82 µM in [2]; 9.51 µM in [3]; 1.77 µM in [4]; 4.12 µM in [5]; 9.36 µM in [6]. Besides, the GI50 in [7] was 2.28 µM; in assay [8], 2.73 µM; in [9], 2.51 µM; in [10] it was 3.88 µM. The TGI was above 100 µM in assay [1]; 32.2 µM in [2]; 38.5 µM in assay [3]; 4.9 µM in [4]; 31 µM in [5]; above 100 µM in [6]. Besides, the TGI was 6.4 µM in assay [7], 9.43 µM in [8], 8.55 µM in assay [9] and above 100 µM in [10].

Take `O=c1[nH]cnc2c1nnn2C1OC(CO)C(O)C1O` (stereo not given): the GI50 in [1] was 2.43 µM; in assay [2], 0.735 µM; in assay [3], 1.5 µM; in assay [4], 3.37 µM; in assay [5], 1.84 µM; in assay [6] it was 1.27 µM. In addition, the GI50 in [7] is 2.44 µM; in [8], 1.69 µM; in assay [9], 0.551 µM; in assay [10] it was 0.416 µM. For the same compound, the TGI in assay [1] is above 100 µM; in assay [2], above 45.1 µM; in assay [3] it was above 30.2 µM; in [4], above 100 µM; in [5], above 56.2 µM; in [6], above 57.7 µM. The TGI in [7] is above 100 µM; in [8], above 100 µM; in assay [9] it was above 28 µM; in assay [10] it was 37.6 µM.

Consider `CC/C=C\C/C=C\C[C@H](O)C/C=C1/C(=O)C=C[C@H]1C/C=C\CCC(=O)OC`, for which the GI50 in assay [1] was 3.75 µM; in [2], 6.01 µM; in [3], above 8.25 µM; in [4], 1.61 µM; in assay [5], 6.11 µM; in assay [6], above 8.25 µM. The GI50 in [7] was 2.93 µM; in [8] it was 2.19 µM; in assay [9] it was 2.31 µM; in assay [10], above 8.25 µM. Also, the TGI in [1], in assay [2], in assay [3], in assay [4], in [5] and in assay [6] was above 8.25 µM each time. The TGI in assay [7] was above 8.25 µM; in assay [8], above 8.25 µM; in assay [9] it was 7.8 µM; in assay [10], above 8.25 µM.

`N#Cc1cccc(C(=O)c2cnn(-c3ccc(F)cc3)c2N)c1`: the GI50 in assay [1], in assay [2], in assay [3], in assay [4], in assay [5] and in assay [6] was above 25 µM in each case. The GI50 in assay [7], in [8], in assay [9] and in [10] was above 25 µM throughout. The TGI in assay [1], in assay [2], in assay [3], in assay [4], in assay [5] and in assay [6] was above 25 µM each time. The TGI in [7], in assay [8], in [9] and in [10] was above 25 µM throughout.

Turning to `O=C(Nc1ccc(Cl)cc1)c1cc2c(cc1O)[nH]c1ccccc12`, the GI50 in assay [1] is 3.96 µM; in [2], 2.26 µM; in assay [3], 2.54 µM; in assay [4], 3.44 µM; in [5], 2.85 µM; in [6], 4.31 µM. The GI50 was 4.18 µM in assay [7], 3.4 µM in assay [8], 4.37 µM in assay [9] and 4.66 µM in assay [10]. Moreover, the TGI in assay [1] is 22.8 µM; in [2], 6.02 µM; in assay [3], 6.56 µM; in assay [4] it was 31.6 µM; in assay [5] it was 10.4 µM; in assay [6], 18.7 µM. Besides, the TGI in assay [7] is 47.4 µM; in [8], 13.4 µM; in [9] it was above 100 µM; in assay [10], 17.6 µM.

As to `CN(C)c1ccc(C(=O)c2ccc(N(C)C)c(N)c2)cc1N`, the GI50 was 5.97 µM in assay [1]; 3.02 µM in assay [2]; 14.5 µM in assay [3]; 0.406 µM in assay [4]; 1.67 µM in assay [5]; 1.86 µM in [6]. The GI50 in assay [7] was 2.76 µM; in assay [8], 1.14 µM; in assay [9], 1.93 µM; in [10] it was 6.26 µM. Also, the TGI in assay [1] is above 100 µM; in assay [2] it was above 43.3 µM; in assay [3], 98.6 µM; in assay [4] it was above 16.4 µM; in [5], 9.74 µM; in [6] it was above 42.5 µM. Further, the TGI was above 57.6 µM in assay [7], above 100 µM in assay [8], above 100 µM in assay [9] and above 100 µM in assay [10].

Turning to `O=C1c2ccccc2-c2c1c1ccc([N+](=O)[O-])cc1c(=O)n2CCNCCCNCCn1c2c(c3ccc([N+](=O)[O-])cc3c1=O)C(=O)c1ccccc1-2`, the GI50 in assay [1] was 0.547 µM; in assay [2], 0.822 µM; in assay [3], 1.27 µM; in assay [4] it was 0.005 µM; in [5], 0.888 µM; in assay [6], 0.0249 µM. Also, the GI50 in assay [7] was 0.005 µM; in [8], 0.0641 µM; in assay [9] it was 0.00645 µM; in [10], 0.215 µM. The TGI turned out to be 9.18 µM in assay [1]; 21.7 µM in assay [2]; 22.1 µM in [3]; 18.8 µM in assay [4]; 23.5 µM in assay [5]; 4.38 µM in assay [6]. Also, the TGI in assay [7] worked out at 18.6 µM; in [8] it was 5.68 µM; in assay [9] it was 3.97 µM; in assay [10] it was 4.92 µM.

For `CNC(=O)c1c(NC(=O)c2cccc(C(F)(F)F)c2)sc2c1CCC(=O)C2`, the GI50 was 0.139 µM in assay [1]; 0.282 µM in [2]; 0.469 µM in [3]; 0.191 µM in assay [4]; 0.417 µM in assay [5]; 0.339 µM in assay [6]. Also, the GI50 is 0.356 µM in [7], 0.254 µM in [8], 0.113 µM in assay [9] and 0.389 µM in assay [10]. The TGI in assay [1] is 1.19 µM; in assay [2], 1.22 µM; in assay [3] it was above 40.8 µM; in assay [4] it was above 100 µM; in assay [5] it was 4 µM; in assay [6] it was 2.26 µM. In addition, the TGI came to 4.63 µM in assay [7], 1.75 µM in assay [8], 1.49 µM in assay [9] and 1.44 µM in assay [10].

With `CCc1ccc(-c2ccc(=O)n(-c3ccc(S(N)(=O)=O)cc3)n2)cc1`, the GI50 in assay [1] was 1.35 µM; in assay [2] it was 2.6 µM; in assay [3], 13.2 µM; in assay [4], 0.0659 µM; in [5], 0.764 µM; in [6] it was 3.32 µM. Moreover, the GI50 in assay [7] is 0.884 µM; in assay [8] it was 0.56 µM; in assay [9], 1.22 µM; in assay [10], above 100 µM. The TGI in [1] is above 100 µM; in assay [2] it was above 100 µM; in assay [3], 38.3 µM; in assay [4], 0.497 µM; in assay [5], above 22.2 µM; in assay [6] it was above 77.6 µM. The TGI in assay [7] was above 90 µM; in assay [8] it was above 100 µM; in [9] it was above 100 µM; in assay [10], above 100 µM.

For `CCOCC(=O)N[C@H]1CCc2cc(OC)c(OC)c(OC)c2-c2ccc(SC)c(=O)cc21`, the total growth inhibition concentration (TGI) in assay [1] is above 25.3 µM; in [2] it was above 45.8 µM; in assay [3], above 100 µM; in assay [4] it was above 100 µM; in assay [5] it was above 100 µM; in assay [6], above 100 µM. For the same compound, the TGI in assay [7] was above 62.6 µM; in assay [8], above 100 µM; in [9], above 70.2 µM; in [10], above 100 µM.

In the case of `NC(=O)C(Br)CBr` (stereo not given), the GI50 was 2.51 µM in assay [1]; 0.472 µM in assay [2]; 2.24 µM in assay [3]; 0.394 µM in assay [4]; 1.63 µM in assay [5]; 1.59 µM in assay [6]. The GI50 in [7] was 1.42 µM; in assay [8], 1.29 µM; in assay [9] it was 1.05 µM; in assay [10] it was 1.25 µM. Besides, the total growth inhibition concentration (TGI) in assay [1] was 11.7 µM; in assay [2], 1.16 µM; in assay [3] it was 6.33 µM; in assay [4], 2.56 µM; in [5], 3.02 µM; in assay [6] it was 4.78 µM. Moreover, the TGI amounted to 4.15 µM in assay [7], 2.79 µM in assay [8], 6.93 µM in [9] and 2.55 µM in assay [10].

Consider `COc1ccc(Nc2ccnc(NCCNc3ccnc4cc(Cl)ccc34)n2)cc1`, for which the GI50 in [1] is 1.85 µM; in [2], 1.73 µM; in assay [3], 3.33 µM; in assay [4], 2.12 µM; in assay [5], 1.46 µM; in [6] it was 1.99 µM. For the same compound, the GI50 in assay [7] was 3.46 µM; in [8], 1.6 µM; in [9], 1.65 µM; in [10] it was 1.45 µM. In addition, the TGI in assay [1] is 16 µM; in assay [2], 4.57 µM; in [3], 10.5 µM; in assay [4], 7.51 µM; in assay [5] it was 3.41 µM; in assay [6], 11 µM. Moreover, the TGI in assay [7] worked out at 16.2 µM; in assay [8] it was 10.2 µM; in [9], 8.23 µM; in assay [10] it was 13.8 µM.

As to `CCON=C1C(C)(C)C(C)(C)C(C)(C)C1(C)C`, the TGI in assay [1], in [2], in [3], in assay [4], in assay [5] and in assay [6] was above 100 µM throughout. In addition, the TGI in assay [7], in [8], in assay [9] and in [10] was above 100 µM throughout.

On to `O=C(Nc1ncc(Cc2ccccc2)s1)c1ccc2c(c1)OCCCO2`, for which the GI50 is 0.927 µM in assay [1]; 0.526 µM in assay [2]; 6.17 µM in assay [3]; 0.299 µM in assay [4]; 0.374 µM in assay [5]; 0.88 µM in assay [6]. Further, the GI50 was 0.478 µM in assay [7], 0.444 µM in assay [8], 0.524 µM in [9] and 5.22 µM in [10]. Besides, the TGI in assay [1], in [2], in [3], in [4], in [5] and in assay [6] was above 100 µM throughout. Moreover, the TGI in [7], in assay [8], in assay [9] and in assay [10] was above 100 µM each time.

Values taken from PubChem BioAssay (NCI).
